Experimental data reported in patent US8889704B2 (Array BioPharma Inc., priority 2011, dated 2014).
Structures can show the parent of a compound that is named as a salt.

Columns and labels:
Assay type in all cases: biochemical
PIM-1 = PIM-1 (Homo sapiens, UniProt P11309); experiment: Enzyme PIM-1 Assay ([33P]ATP incorporation into PIM2tide, filter plate); conditions: averaged IC50; 35 μM ATP, 7.5 μM PIM2tide, 0.25 nM PIM-1, 60 min at 22° C.
Procedure, shortened: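 Radiometric assay: 0.25 nM PIM-1 phosphorylates 7.5 μM PIM2tide with 35 μM [γ-33P]ATP in 20 mM MOPS pH 7.4, 10 mM MgCl2, 1 mM DTT, 0.005% Tween-20, 60 min at 22 °C. Product captured on P81 filters, scintillation counted; 10-point 3-fold curve from 10 μM top, 2% DMSO, IC50 by 4-parameter logistic fit of POC.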

[1] = molecular target: T1, GST-tagged recombinant full-length human Pim-2 (Homo sapiens, UniProt Q9P1W9); experiment: PIM-2 Assay (as Example A); conditions: averaged IC50; 4 μM ATP, 1.0 μM PIM2tide, 1.5 nM Pim-2
T1 construct: GST-tagged recombinant full-length human Pim-2; GST
T1 sequence (Q9P1W9 whole entry): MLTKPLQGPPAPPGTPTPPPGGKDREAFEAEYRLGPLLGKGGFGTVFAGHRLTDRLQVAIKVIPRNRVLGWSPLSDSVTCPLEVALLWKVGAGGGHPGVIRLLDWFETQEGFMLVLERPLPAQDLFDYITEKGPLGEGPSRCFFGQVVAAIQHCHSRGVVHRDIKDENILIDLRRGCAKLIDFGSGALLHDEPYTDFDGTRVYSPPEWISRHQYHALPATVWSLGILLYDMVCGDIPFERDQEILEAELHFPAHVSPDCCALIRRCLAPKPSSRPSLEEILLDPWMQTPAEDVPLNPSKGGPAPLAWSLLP
Procedure, shortened: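 Radiometric filter-binding assay: GST-tagged full-length human Pim-2 (1.5 nM) phosphorylates 1.0 μM PIM2tide with 4 μM [γ-33P]ATP for 60 min at 22 °C in pH 7.4 MOPS buffer, 2% DMSO. 10-point 3-fold dilutions from 10 μM top dose; IC50 from 4-parameter fit of percent of control.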

recombinant rat PIM-3 = recombinant rat PIM-3 (Rattus norvegicus, UniProt O70444); experiment: PIM-3 Assay (as Example A); conditions: averaged IC50; 30 μM ATP, 3.75 μM PIM2tide, 0.5 nM PIM-3
Procedure, shortened: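 Recombinant rat PIM-3 (0.5 nM) with 3.75 μM PIM2tide and 30 μM [γ-33P]ATP in MOPS pH 7.4 buffer, 60 min at 22 °C; labelled peptide captured on phosphocellulose filters and counted by scintillation. 10-point curve (top dose 10 μM, 2% DMSO); IC50 from 4-parameter fit of percent of control.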

PIM-1, sequence (P11309 whole entry, species assumed): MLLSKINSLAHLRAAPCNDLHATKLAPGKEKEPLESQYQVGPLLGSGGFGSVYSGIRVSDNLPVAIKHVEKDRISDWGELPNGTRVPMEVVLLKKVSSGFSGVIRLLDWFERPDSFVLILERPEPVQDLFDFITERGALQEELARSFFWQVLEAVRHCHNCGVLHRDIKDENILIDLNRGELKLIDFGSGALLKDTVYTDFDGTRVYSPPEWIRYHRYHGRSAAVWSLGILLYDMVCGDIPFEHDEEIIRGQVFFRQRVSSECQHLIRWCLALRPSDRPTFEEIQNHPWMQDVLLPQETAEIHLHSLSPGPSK

| IC50 (PIM-1) [nM] | IC50 [1] [nM] | IC50 (recombinant rat PIM-3) [nM] | SMILES |
| --- | --- | --- | --- |
| 1.51 | > 1000 | 12 | CCOc1cc2nc(-c3nnc4ccc([C@H](N5CC[C@H](CN)C5)C(F)(F)F)cn34)ccc2cc1F [Example 296, ((R)-1-((S)-1-(3-(7-ethoxy-6-fluoroquinolin-2-yl)-[1,2,4]triazolo[4,3-a]pyridin-6-yl)-2,2,2-trifluoroethyl)pyrrolidin-3-yl)methanamine hydrochloride] |
| 0.18 | 20 | 0.2 | CC(C)(O)COc1ccc2ccc(-c3nnc4ccc([C@H](N5CC[C@](C)(N)C5)C(F)(F)F)cn34)nc2c1 [Example 297, 1-(2-(6-((S)-1-((S)-3-amino-3-methylpyrrolidin-1-yl)-2,2,2-trifluoroethyl)-[1,2,4]triazolo[4,3-a]pyridin-3-yl)quinolin-7-yloxy)-2-methylpropan-2-ol dihydrochloride] |
| 0.27 | 59 | 0.4 | COCCOc1cc2nc(-c3nnc4ccc([C@H](N5CC[C@](C)(N)C5)C(F)(F)F)cn34)ccc2cc1F [Example 298, (S)-3-methyl-1-((S)-2,2,2-trifluoro-1-(3-(6-fluoro-7-(2-methoxyethoxy)quinolin-2-yl)-[1,2,4]triazolo[4,3-a]pyridin-6-yl)ethyl)pyrrolidin-3-amine dihydrochloride] |
| 0.55 | 695 | 1.6 | CCOc1cc2nc(-c3nnc4ccc([C@@H](N5C[C@@H](N)[C@H](OC)C5)C(F)(F)F)cn34)ccc2cc1F [Example 299, (3R,4R)-1-((R)-1-(3-(7-ethoxy-6-fluoroquinolin-2-yl)-[1,2,4]triazolo[4,3-a]pyridin-6-yl)-2,2,2-trifluoroethyl)-4-methoxypyrrolidin-3-amine dihydrochloride] |
| 0.36 | 64 | 0.4 | COCCc1ccc2ccc(-c3nnc4ccc([C@H](N5CC[C@](C)(N)C5)C(F)(F)F)cn34)nc2c1 [Example 300, (S)-3-methyl-1-((S)-2,2,2-trifluoro-1-(3-(7-(2-methoxyethyl)quinolin-2-yl)-[1,2,4]triazolo[4,3-a]pyridin-6-yl)ethyl)pyrrolidin-3-amine dihydrochloride] |
| 0.2 | 14 | 0.2 | CC(C)(O)COc1cc2nc(-c3nnc4ccc([C@H](N5CC[C@](C)(N)C5)C(F)(F)F)cn34)ccc2cc1F [Example 301, 1-(2-(6-((S)-1-((S)-3-amino-3-methylpyrrolidin-1-yl)-2,2,2-trifluoroethyl)-[1,2,4]triazolo[4,3-a]pyridin-3-yl)-6-fluoroquinolin-7-yloxy)-2-methylpropan-2-ol dihydrochloride] |
| 0.22 | 69 | 0.3 | CC(C)(O)COc1cc2nc(-c3nnc4ccc([C@@H](N5CC[C@H](N)C5)C(F)(F)F)cn34)ccc2cc1F [Example 302, 1-(2-(6-((R)-1-((S)-3-aminopyrrolidin-1-yl)-2,2,2-trifluoroethyl)-[1,2,4]triazolo[4,3-a]pyridin-3-yl)-6-fluoroquinolin-7-yloxy)-2-methylpropan-2-ol dihydrochloride] |
| 1.33 | 242 | 5.85 | COC[C@@H](C)Oc1cccc2ccc(-c3nnc4ccc([C@@H](N5CC[C@H](N(C)C)C5)C(F)(F)F)cn34)nc12 [Example 303, (S)—N,N-dimethyl-1-((R)-2,2,2-trifluoro-1-(3-(8-((R)-1-methoxypropan-2-yloxy)quinolin-2-yl)-[1,2,4]triazolo[4,3-a]pyridin-6-yl)ethyl)pyrrolidin-3-amine dihydrochloride] |
| 0.26 | 65.1 | 0.3 | CO[C@@H](C)COc1ccc2ccc(-c3nnc4ccc([C@H](N5CC[C@](C)(N)C5)C(F)(F)F)cn34)nc2c1 [Example 304, (S)-3-methyl-1-((S)-2,2,2-trifluoro-1-(3-(7-((S)-2-methoxypropoxy)quinolin-2-yl)-[1,2,4]triazolo[4,3-a]pyridin-6-yl)ethyl)pyrrolidin-3-amine] |
| 0.96 | 71 | 0.4 | CO[C@H](C)COc1ccc2ccc(-c3nnc4ccc([C@H](N5CC[C@](C)(N)C5)C(F)(F)F)cn34)nc2c1 [Example 305, (S)-3-methyl-1-((S)-2,2,2-trifluoro-1-(3-(7-((R)-2-methoxypropoxy)quinolin-2-yl)-[1,2,4]triazolo[4,3-a]pyridin-6-yl)ethyl)pyrrolidin-3-amine] |
| 0.28 | 281 | 0.7 | CCOCCOc1ccc2ccc(-c3nnc4ccc([C@H](N5CC[C@](C)(N)C5)C(F)(F)F)cn34)nc2c1 [Example 306, (S)-1-((S)-1-(3-(7-(2-ethoxyethoxy)quinolin-2-yl)-[1,2,4]triazolo[4,3-a]pyridin-6-yl)-2,2,2-trifluoroethyl)-3-methylpyrrolidin-3-amine] |
| 1.64 | 62.4 | 6.9 | C[C@H](c1ccc2nnc(-c3ccc4cccc(C(C)(C)C)c4n3)n2c1)N1CC[C@H](N)C1 [Example 307, (S)-1-((R)-1-(3-(8-tert-butylquinolin-2-yl)-[1,2,4]triazolo[4,3-a]pyridin-6-yl)ethyl)pyrrolidin-3-amine trihydrochloride] |
| 0.17 | 29.4 | 0.4 | C[C@@H](c1ccc2nnc(-c3ccc4cccc(C(C)(C)C)c4n3)n2c1)N1CC[C@H](N)C1 [Example 308, (S)-1-((S)-1-(3-(8-tert-butylquinolin-2-yl)-[1,2,4]triazolo[4,3-a]pyridin-6-yl)ethyl)pyrrolidin-3-amine trihydrochloride] |
| 1.18 | 407 | 3 | CCOc1cc2nc(-c3nnc4ccc([C@@H](C)N5CC[C@H](N)C5)cn34)ccc2cc1F [Example 309, (S)-1-((R)-1-(3-(7-ethoxy-6-fluoroquinolin-2-yl)-[1,2,4]triazolo[4,3-a]pyridin-6-yl)ethyl)pyrrolidin-3-amine trihydrochloride] |
| 0.46 | 415 | 1.1 | CCOc1cc2nc(-c3nnc4ccc([C@H](C)N5CC[C@H](N)C5)cn34)ccc2cc1F [Example 310, (S)-1-((S)-1-(3-(7-ethoxy-6-fluoroquinolin-2-yl)-[1,2,4]triazolo[4,3-a]pyridin-6-yl)ethyl)pyrrolidin-3-amine trihydrochloride] |
| 0.24 | 170 | 0.8 | COc1ccc2ccc(-c3nnc4ccc([C@H](N5CC[C@](C)(N)C5)C(F)(F)F)cn34)nc2c1 [Example 312, (S)-3-methyl-1-((S)-2,2,2-trifluoro-1-(3-(7-methoxyquinolin-2-yl)-[1,2,4]triazolo[4,3-a]pyridin-6-yl)ethyl)pyrrolidin-3-amine] |
| 0.22 | 18.4 | 0.4 | CC(C)Oc1ccc2ccc(-c3nnc4ccc([C@H](N5CC[C@](C)(N)C5)C(F)(F)F)cn34)nc2c1 [Example 314, (S)-3-methyl-1-((S)-2,2,2-trifluoro-1-(3-(7-isopropoxyquinolin-2-yl)-[1,2,4]triazolo[4,3-a]pyridin-6-yl)ethyl)pyrrolidin-3-amine] |
| 0.19 | 25.7 | 0.4 | COC[C@@H](C)Oc1ccc2ccc(-c3nnc4ccc([C@H](N5CC[C@](C)(N)C5)C(F)(F)F)cn34)nc2c1 [Example 315, (S)-3-methyl-1-((S)-2,2,2-trifluoro-1-(3-(7-(((R)-1-methoxypropan-2-yl)oxy)quinolin-2-yl)-[1,2,4]triazolo[4,3-a]pyridin-6-yl)ethyl)pyrrolidin-3-amine] |
| 0.48 | 764 | 2.8 | N[C@H]1CCN([C@H](c2ccc3nnc(-c4ccc5ccc(C6COC6)cc5n4)n3c2)C(F)(F)F)C1 [Example 316, (S)-1-((R)-2,2,2-trifluoro-1-(3-(7-(oxetan-3-yl)quinolin-2-yl)-[1,2,4]triazolo[4,3-a]pyridin-6-yl)ethyl)pyrrolidin-3-amine] |
| 0.34 | 194 | 0.4 | C[C@]1(N)CCN([C@@H](c2ccc3nnc(-c4ccc5ccc(CCO)cc5n4)n3c2)C(F)(F)F)C1 [Example 317, 2-(2-(6-((S)-1-((S)-3-amino-3-methylpyrrolidin-1-yl)-2,2,2-trifluoroethyl)-[1,2,4]triazolo[4,3-a]pyridin-3-yl)quinolin-7-yl)ethanol] |
| 0.94 | 218 | 0.8 | COCCOc1ccc2ccc(-c3nnc4ccc([C@@H](N5C[C@@H](N)[C@H](OC)C5)C(F)(F)F)cn34)nc2c1 [Example 318, (3R,4R)-4-methoxy-1-((R)-2,2,2-trifluoro-1-(3-(7-(2-methoxyethoxy)quinolin-2-yl)-[1,2,4]triazolo[4,3-a]pyridin-6-yl)ethyl)pyrrolidin-3-amine] |
